Tested on: Artemia salina
Assay: Toxicity against Artemia salina after 24 hrs
Format: organism-based
Conditions: in vivo

Compound	LD50
C#CCCCC1OC(=O)CCNC(=O)[C@@H](Cc2ccccc2)N(C)C(=O)[C@H](C(C)C)OC(=O)[C@H]([C@H](C)CC)NC(=O)C1(C)C (some centres not stated) [YANUCAMIDE B]	5 ppm
C#CCCCC1OC(=O)CCNC(=O)[C@@H](Cc2ccccc2)N(C)C(=O)[C@H](C(C)C)OC(=O)[C@H](C(C)C)NC(=O)C1(C)C (some centres not stated) [YANUCAMIDE A]	5 ppm

— ChEMBL document CHEMBL1155673, “Yanucamides A and B, two new depsipeptides from an assemblage of the marine cyanobacteria Lyngbya majuscula and Schizothrix species” (J Nat Prod, 2000)
